Patent US20030022856A1, “Method for sustained release local delivery of drugs for ablation of unwanted tissue” (The Regents Of The University of Michigan, priority 2001, published 2003)

System: organ cultured adipose tissue (epididymal fat tissue)
Assay: Adipose organ culture apoptosis assay (Bax immunostaining)
Type: cell-based, rat
Settings: seven days incubation, 1 μg TNF-α
Protocol: Epididymal fat tissue was excised and cut into pieces (1 cm^3), and cultured. Briefly, tissue was placed in Dulbecco's Modified Eagle Medium containing 10% fetal bovine serum and penicillin/streptomycin, and incubated at 37° C. Samples (n=3) were injected with PBS, TNF-α protein (1 μg), blank microspheres, or microspheres containing TNF-α (total 1 μg TNF-α) and incubated at 37° C. After 3 or 7 days, the tissue was rinsed 1× with PBS, placed in 3.7% formaldehyde overnight and stored in 70% ethanol prior to sectioning for histology.
Tissue samples were bisected and subjected to butyl processing and paraffinization by standard procedures, at the histology core facility at the University of Michigan School of Dentistry. This process removes all lipids droplets from the tissue, enabling reproducible and rapid staining. […] Samples were counterstained with hematoxylin, imaged using a Nikon Eclipse E800, and Bax positive and negative cells were counted manually from at least 10 randomly chosen fields. Data were subjected to statistical analysis to determine the significance of the difference (P<0.05) among the measured population proportions of Bax positive cells, using a binomial equation. […]

## tumor necrosis factor-alpha [TNF-α protein]
  Bax staining of adipose tissue: high levels of staining
1 cm^3 explanted tissue
  percentage of Bax positive cells (apoptotic cells): 54%
